PubChem BioAssay (NCI)
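1) Cells in 96-well plates. 2) Compound, 48 h, 5 concentrations. 3) Linear interpolation between surrounding doses. 4) Unreached endpoint = highest concentration. GI50 = concentration required for 50% inhibition of growth. TGI: concentration producing complete growth inhibition.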

Legend:
Assay in all cases: NCI anticancer screen, dose series, 48 h
[1] = tested on: 786-0 renal
[2] = tested on: IGROV1 ovarian
[3] = tested on: M14 melanoma
[4] = tested on: NCI-H460 lung
[5] = tested on: OVCAR-3 ovarian
[6] = tested on: SNB-75 CNS
[7] = tested on: TK-10 renal
[8] = tested on: UO-31 renal
[9] = tested on: NCI/ADR-RES ovarian
[10] = tested on: T-47D breast

Nc1ncnc2c1sc(=S)n2-c1ccccc1
TGI [1]: > 100 µM | TGI [2]: > 100 µM | TGI [3]: > 100 µM | TGI [4]: > 100 µM | TGI [5]: > 100 µM | TGI [6]: > 100 µM | TGI [7]: > 100 µM | TGI [8]: > 100 µM

CC(=O)Oc1c2c(c(OC(C)=O)c3c1n(C(C)=O)c1ccccc1n3C(C)=O)n(C(C)=O)c1ccccc1n2C(C)=O
TGI [3]: 20.7 µM | TGI [4]: 15.4 µM | TGI [5]: 5.68 µM | TGI [6]: 46.1 µM | TGI [8]: 25.2 µM

C=CCOC(=O)c1c(C)n([O-])c2cc(Cl)c(Cl)cc2[n+]1=O
TGI [1]: 60.1 µM | TGI [2]: 22.8 µM | TGI [3]: 38.8 µM | TGI [4]: 42.3 µM | TGI [9]: 46.9 µM | TGI [5]: 40.8 µM | TGI [10]: 49.3 µM | TGI [7]: 87.2 µM | TGI [8]: 59.8 µM

C=CC(C)(C)C1(CC(OC)OC)C(=O)N(C)c2ccccc21 (centres undefined)
TGI [1]: > 25 µM | TGI [3]: > 25 µM | TGI [4]: > 25 µM | TGI [9]: > 25 µM | TGI [5]: > 25 µM | TGI [6]: > 25 µM | TGI [10]: > 25 µM | TGI [8]: > 25 µM

Fc1ccc2[nH]cc(-c3nc(-c4c[nH]c5ccncc45)cs3)c2c1
GI50 [5]: 1.8 µM | TGI [5]: 3.3 µM | GI50 [6]: 1.22 µM | TGI [6]: 2.62 µM | GI50 [7]: 2.3 µM | TGI [7]: 3.91 µM | GI50 [8]: 1.33 µM | TGI [8]: 2.61 µM

O=C(OCC1CCCN2CCCCC12)c1cccnc1 (centres undefined)
TGI [1]: > 100 µM | TGI [4]: > 100 µM | TGI [9]: > 100 µM | TGI [6]: > 100 µM | TGI [10]: > 100 µM | TGI [7]: > 100 µM | TGI [8]: > 100 µM

Cc1c(OCCCOc2ccc3c(=O)cc(-c4ccccc4)oc3c2C)ccc2c(=O)cc(-c3ccccc3)oc12
TGI [1]: > 100 µM | TGI [2]: > 100 µM | TGI [3]: > 100 µM | TGI [4]: > 100 µM | TGI [5]: > 100 µM | TGI [7]: > 100 µM | TGI [8]: > 100 µM

C[N+](C)=c1ccc2nc3c(ccc4ccccc43)oc-2c1
TGI [1]: 28.9 µM | TGI [2]: 17.2 µM | TGI [3]: 24.7 µM | TGI [4]: 37.7 µM | TGI [5]: 14 µM | TGI [6]: 32.5 µM | TGI [7]: 31.1 µM | TGI [8]: 31.5 µM

CO[C@H]1CC[C@]2(C)C3=CC[C@@]4(C)C(CC[C@@H]4C(C)CC[C@@H](C)C(C)C)C(=CCC2C1)O3 (some centres undefined)
TGI [1]: > 25 µM | TGI [2]: > 25 µM | TGI [3]: > 25 µM | TGI [4]: > 25 µM | TGI [5]: > 25 µM | TGI [6]: > 25 µM | TGI [7]: > 25 µM | TGI [8]: > 25 µM

COc1ccc(C(=O)c2c(-c3ccccc3NC(=O)C(F)(F)F)[nH]c3ccccc23)cc1
TGI [2]: 24.3 µM | TGI [3]: 32.6 µM | TGI [4]: 16.4 µM | TGI [9]: 28.8 µM | TGI [5]: 8.67 µM | TGI [6]: 7.89 µM | TGI [10]: 9.05 µM | TGI [7]: 24.9 µM | TGI [8]: 19.4 µM

COC(=O)[C@@H]1[C@H](O)CCC2=C(CC(=O)c3ccoc3)[C@H](C)CC[C@]21C
TGI [1]: > 50 µM | TGI [2]: > 50 µM | TGI [3]: > 50 µM | TGI [4]: > 50 µM | TGI [9]: > 50 µM | TGI [5]: > 50 µM | TGI [6]: > 50 µM | TGI [7]: > 50 µM | TGI [8]: > 50 µM

CC(C(=O)NCCNC(=O)CCC(=O)N(C)O)C(=O)NCCNC(=O)CCC(=O)N(C)O
TGI [2]: > 100 µM | TGI [3]: > 100 µM | TGI [4]: > 100 µM | TGI [9]: > 100 µM | TGI [5]: > 100 µM | TGI [6]: > 100 µM | TGI [10]: > 100 µM | TGI [7]: > 100 µM | TGI [8]: > 100 µM

Brc1c2nc3ccccc3nc2n2ccc3ccccc3c12
TGI [1]: > 100 µM | TGI [2]: > 100 µM | TGI [3]: > 100 µM | TGI [4]: > 100 µM | TGI [5]: > 100 µM | TGI [6]: > 100 µM | TGI [7]: > 100 µM | TGI [8]: > 100 µM

C[N+](C)(C)CCOC(=O)/C=C/c1cnc[nH]1
TGI [2]: > 500 µM | TGI [4]: > 500 µM | TGI [9]: > 500 µM | TGI [5]: > 500 µM | TGI [6]: > 500 µM | TGI [8]: > 500 µM

C=C1C2C[C@@H]3OC4CC5O[C@]6(CC5OC4C(C)C3OC(=O)CC3CC[C@@H]4OC5C7OC8C[C@](CCC9CC(=C)[C@H](CCC(C[C@H]1C)O2)O9)(OC7C4O3)O[C@@H]85)C[C@@H]1O[C@@]2(CC(C)[C@@H]3OC(CC(=O)CCO)C(O)C[C@@H]3O2)CC(C)[C@@H]1O6 (some centres undefined)
TGI [1]: 1.09 µM | TGI [2]: 1.37 µM | TGI [3]: 0.17 µM | TGI [4]: 1.33 µM | TGI [5]: < 0.001 µM | TGI [8]: 1.17 µM

COC(=O)[C@H]1[C@@H](O)[C@@]2(O)c3c(OC)cc(OC)cc3O[C@@]2(c2ccc3c(c2)OCO3)[C@@H]1c1ccccc1
TGI [1]: 0.0944 µM | TGI [2]: 0.666 µM | TGI [3]: 0.0414 µM | TGI [9]: 0.241 µM | TGI [5]: 2.8 µM | TGI [10]: > 10.8 µM | TGI [8]: 0.0223 µM

Cc1ccc(S(=O)(=O)NC(=O)NCCc2ccc(O)c(O)c2)cc1
TGI [1]: > 100 µM | TGI [2]: > 100 µM | TGI [3]: > 100 µM | TGI [4]: > 100 µM | TGI [9]: > 100 µM | TGI [5]: > 100 µM | TGI [6]: > 100 µM | TGI [7]: > 100 µM | TGI [8]: > 100 µM

Cc1c(-c2coc(-c3ccccc3)n2)c(=O)n(-c2ccccc2)n1C
TGI [1]: > 100 µM | TGI [2]: > 100 µM | TGI [3]: > 100 µM | TGI [4]: > 100 µM | TGI [5]: > 100 µM | TGI [6]: > 100 µM | TGI [7]: > 100 µM | TGI [8]: > 100 µM
